By IC50 is commonly meant the point on the concentration scale where inhibition reaches its midpoint. By inhibition is commonly meant how much of the control response was suppressed.

SMILES strings stand for the structures.

The target of one assay is T1, Autotaxin (Homo sapiens, UniProt Q13822). Kind of assay: Inhibition of glycosylated human ATX using FS-3 as substrate preincubated for 45 mins under shaking condition followed by substrate addition and measured after 45 mins by fluorescence assay.
Conditions: not given
`O=C(CCc1nc2ccccc2s1)N1CCc2ncnc(Cc3ccc(F)cc3)c2C1` gave an IC50 of 10.4 nM.

`O=C(N/N=C/c1ccc(F)cc1Cl)N1CCc2ncnc(Nc3cccc(C(F)(F)F)c3)c2C1` displayed a half-maximal inhibitory concentration (IC50) of 26.9 nM.

`O=C(N/N=C/c1ccc(O)c(Br)c1)N1CCc2ncnc(Nc3ccc(F)c(Cl)c3)c2C1` displayed an IC50 of 31.3 nM.

Tested on in the next assay: not listed separately
In words: Antiproliferative activity against Sprague-Dawley rat T-HSC/Cl-6 assessed as inhibition of cell proliferation at 10 uM measured after 24 hrs by MTT assay relative to control. The class given is functional.
Conditions: not given
As to `O=C(N/N=C/c1ccc(F)c(Cl)c1)N1CCc2ncnc(Nc3cccc(Br)c3)c2C1`, the inhibition at 10 µM is 60.3%.

Regarding `O=C(N/N=C/c1cc(F)c(F)cc1Cl)N1CCc2ncnc(Nc3cccc(Br)c3)c2C1`, the inhibition at 10 µM amounted to 56.7%.

In the case of `Cc1ccc(/C=N/NC(=O)N2CCc3ncnc(Nc4cccc(Br)c4)c3C2)cc1C`, the inhibition at 10 µM came out at 49.2%.

With `O=C(N/N=C/c1cc(C(F)(F)F)cc(C(F)(F)F)c1)N1CCc2ncnc(Nc3cccc(C(F)(F)F)c3)c2C1`, the inhibition at 10 µM is 62.9%.

Take `O=C(N/N=C/c1ccco1)N1CCc2ncnc(Nc3cccc(C(F)(F)F)c3)c2C1`: the inhibition at 10 µM amounted to 71.5%.

For the compound `Cc1cc(C)c(/C=N/NC(=O)N2CCc3ncnc(Nc4ccc(F)c(Cl)c4)c3C2)c(C)c1`, the inhibition at 10 µM was found to be 58.1%.

`O=C(N/N=C/c1ccc[nH]1)N1CCc2ncnc(Nc3cccc(C(F)(F)F)c3)c2C1`: the inhibition at 10 µM amounted to 68.8%.

On to `O=C(N/N=C/c1ccccc1)N1CCc2ncnc(Nc3cccc(C(F)(F)F)c3)c2C1`, for which the inhibition at 10 µM was determined as 57.4%.

Regarding `O=C(N/N=C/c1ccc(OC(F)(F)F)cc1)N1CCc2ncnc(Nc3cccc(Br)c3)c2C1`, the inhibition at 10 µM was 54.8%.

For `O=C(N/N=C/c1cccnc1)N1CCc2ncnc(Nc3cccc(C(F)(F)F)c3)c2C1`, the inhibition at 10 µM is 63.2%.

Take `O=C(CCc1nc2ccccc2s1)N1CCc2ncnc(Cc3ccc(F)cc3)c2C1`: the inhibition at 10 µM came to 73.8%.

Regarding `O=C(N/N=C/c1ccc(F)cc1Cl)N1CCc2ncnc(Nc3cccc(C(F)(F)F)c3)c2C1`, the inhibition at 10 µM stood at 70.6%.

Take `O=C(N/N=C/c1ccc(O)c(Br)c1)N1CCc2ncnc(Nc3ccc(F)c(Cl)c3)c2C1`: the inhibition at 10 µM amounted to 72%.

The target of another assay is T1, Autotaxin. In words: Inhibition of human ATX using FS-3 as substrate measured after 30 mins by fluorescence plate reader assay.
Conditions: not given
As for `O=C(CCc1nc2ccccc2s1)N1CCc2ncnc(Cc3ccc(F)cc3)c2C1`, the IC50 was determined as 29.1 nM.

Tested on in the next assay: not listed separately
In words: Antiproliferative activity against Wistar/Sprague-Dawley rat cardiac fibroblasts assessed as inhibition of cell proliferation at 10 uM measured after 24 hrs by MTT assay relative to control. The class given is functional, CF [Rat heart fibroblast]. The following applies: Fibroblast. For orientation: Tetrazolium assays rely on reduction of a dye to a coloured formazan, in cell work by metabolically active cells.
Turning to `O=C(N/N=C/c1ccc(F)c(Cl)c1)N1CCc2ncnc(Nc3cccc(Br)c3)c2C1`, the inhibition at 10 µM amounted to 45.1%.

On to `O=C(N/N=C/c1cc(F)c(F)cc1Cl)N1CCc2ncnc(Nc3cccc(Br)c3)c2C1`, for which the inhibition at 10 µM was determined as 41.7%.

With `Cc1ccc(/C=N/NC(=O)N2CCc3ncnc(Nc4cccc(Br)c4)c3C2)cc1C`, the inhibition at 10 µM was 41.7%.

Consider `O=C(N/N=C/c1cc(C(F)(F)F)cc(C(F)(F)F)c1)N1CCc2ncnc(Nc3cccc(C(F)(F)F)c3)c2C1`, for which the inhibition at 10 µM was determined as 42.5%.

Turning to `O=C(N/N=C/c1ccco1)N1CCc2ncnc(Nc3cccc(C(F)(F)F)c3)c2C1`, the inhibition at 10 µM is 54.1%.

Turning to `Cc1cc(C)c(/C=N/NC(=O)N2CCc3ncnc(Nc4ccc(F)c(Cl)c4)c3C2)c(C)c1`, the inhibition at 10 µM was found to be 54%.

With `O=C(N/N=C/c1ccc[nH]1)N1CCc2ncnc(Nc3cccc(C(F)(F)F)c3)c2C1`, the inhibition at 10 µM came to 51.3%.

For the compound `O=C(N/N=C/c1ccccc1)N1CCc2ncnc(Nc3cccc(C(F)(F)F)c3)c2C1`, the inhibition at 10 µM was determined as 48.3%.

In the case of `O=C(N/N=C/c1ccc(OC(F)(F)F)cc1)N1CCc2ncnc(Nc3cccc(Br)c3)c2C1`, the inhibition at 10 µM worked out at 48.8%.

In the case of `O=C(N/N=C/c1cccnc1)N1CCc2ncnc(Nc3cccc(C(F)(F)F)c3)c2C1`, the inhibition at 10 µM was found to be 41.2%.

For the compound `O=C(CCc1nc2ccccc2s1)N1CCc2ncnc(Cc3ccc(F)cc3)c2C1`, the inhibition at 10 µM stood at 68.4%.

Take `O=C(N/N=C/c1ccc(F)cc1Cl)N1CCc2ncnc(Nc3cccc(C(F)(F)F)c3)c2C1`: the inhibition at 10 µM stood at 55.2%.

With `O=C(N/N=C/c1ccc(O)c(Br)c1)N1CCc2ncnc(Nc3ccc(F)c(Cl)c3)c2C1`, the inhibition at 10 µM is 69%.

The values are drawn from ChEMBL document CHEMBL4706481, “Optimization and evaluation of novel tetrahydropyrido[4,3-d]pyrimidine derivatives as ATX inhibitors for cardiac and hepatic fibrosis” (Eur J Med Chem, 2020).
